The results in this text go back to patent US20080051429A1, “USE OF 4-AMINO-PIPERIDINES FOR TREATING SLEEP DISORDERS” (priority 2006, published 2008).

Type in all cases: cell-based
One experiment addresses T1, 5-HT2A receptor (Homo sapiens, UniProt P28223).
T1 construct: expressed in transfected cells; host or cells: NIH3T3 cells, pSI expression vector
The experiment can be described thus: R-SAT functional receptor assay. As to conditions: for EC50: agonist.

The target in another experiment is T2, D1 (Homo sapiens, UniProt P21728).
T2 construct: expressed in transfected cells; host or cells: NIH3T3
T2 sequence (P21728 whole entry): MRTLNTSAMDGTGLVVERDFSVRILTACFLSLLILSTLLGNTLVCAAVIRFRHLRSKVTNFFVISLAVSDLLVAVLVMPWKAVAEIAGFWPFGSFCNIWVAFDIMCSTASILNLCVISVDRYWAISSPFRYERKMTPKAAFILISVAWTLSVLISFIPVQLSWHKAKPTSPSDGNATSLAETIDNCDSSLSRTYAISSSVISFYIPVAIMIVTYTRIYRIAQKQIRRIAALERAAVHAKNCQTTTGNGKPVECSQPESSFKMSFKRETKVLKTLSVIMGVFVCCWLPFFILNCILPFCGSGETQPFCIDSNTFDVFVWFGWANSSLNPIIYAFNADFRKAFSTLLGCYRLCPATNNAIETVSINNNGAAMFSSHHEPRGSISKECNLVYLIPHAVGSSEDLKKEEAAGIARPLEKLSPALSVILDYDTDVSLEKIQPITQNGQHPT
The experiment can be described thus: R-SAT broad profiling. As to conditions: read-out: pEC50 or pIC50 (converted). On the procedure:
(§1) The functional receptor assay, Receptor Selection and Amplification Technology (R-SAT), was used (with minor modifications from that previously described U.S. Pat. No. 5,707,798) to screen compounds for efficacy at the 5-HT2A receptor. Briefly, NIH3T3 cells were grown in 96 well tissue culture plates to 70-80% confluence. Cells were transfected for 12-16 hours with plasmid DNAs using superfect (Qiagen Inc.) as per manufacture's protocols. R-SAT's were generally performed with 50 ng/well of receptor and 20 ng/well of Beta-galactosidase plasmid DNA. All receptor and G-protein constructs used were in the pSI mammalian expression vector (Promega Inc) as described in U.S. Pat. No. 5,707,798. The 5HT2A receptor gene was amplified by nested PCR from brain cDNA using the oligodeoxynucleotides based on the published sequence (see Saltzman et. al. Biochem. Biophys. Res. Comm. 181:1469-78 (1991)). Large-scale transfections, cells were transfected for 12-16 hours, then trypsinized and frozen in DMSO. Frozen cells were later thawed, plated at 10,000-40,000 cells per well of a 96 well plate that contained drug. With both methods, cells were then grown in a humidified atmosphere with 5% ambient CO2 for five days. Media was then removed from the plates and marker gene activity was measured by the addition of the beta-galactosidase substrate ONPG (in PBS with 5% NP-40). The resulting colorimetric reaction was measured in a spectrophotometric plate reader (Titertek Inc.)at […]. All data were analyzed using the computer program XLFit (IDBSm). Efficacy is the percent maximal repression compared to repression by a control compound (ritanserin in the case of 5HT2A). pIC50 is the negative of the log(IC50), where IC50 is the calculated concentration in Molar that produces 50% maximal repression.
(§2) The R-SAT assay (described above in example 289) was used to investigate the selectivity of 4-(4-Fluoro-benzyl)-3-(4-isobutoxy-benzyl)-8-methyl-1-oxa-3,8-diaza-spiro[4.5]decan-2-one.

For another experiment, the target named is T3, alpha 1B (Mesocricetus auratus, UniProt P18841).
T3 construct: expressed in transfected cells; host or cells: NIH3T3
T3 sequence (P18841 whole entry): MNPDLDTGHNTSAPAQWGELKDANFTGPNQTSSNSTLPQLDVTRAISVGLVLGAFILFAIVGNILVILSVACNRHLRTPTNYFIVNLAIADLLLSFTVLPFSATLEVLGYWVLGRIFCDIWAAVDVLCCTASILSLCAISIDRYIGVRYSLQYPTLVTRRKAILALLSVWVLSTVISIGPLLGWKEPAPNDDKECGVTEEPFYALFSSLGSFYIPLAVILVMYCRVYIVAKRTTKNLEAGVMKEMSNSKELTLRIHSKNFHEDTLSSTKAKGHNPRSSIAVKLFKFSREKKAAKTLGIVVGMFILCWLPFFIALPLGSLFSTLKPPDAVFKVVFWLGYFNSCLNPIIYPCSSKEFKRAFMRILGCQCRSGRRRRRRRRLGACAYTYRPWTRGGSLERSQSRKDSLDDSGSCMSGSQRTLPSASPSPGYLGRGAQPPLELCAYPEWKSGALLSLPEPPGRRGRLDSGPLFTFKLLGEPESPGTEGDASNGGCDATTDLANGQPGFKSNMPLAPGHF
The experiment can be described thus: R-SAT broad profiling. As to conditions: read-out: pEC50 or pIC50 (converted). On the procedure:
as §1, §2

The target of the next experiment is T4, alpha 2B (Homo sapiens, UniProt P18089).
T4 construct: expressed in transfected cells; host or cells: NIH3T3
T4 sequence (P18089 1-450): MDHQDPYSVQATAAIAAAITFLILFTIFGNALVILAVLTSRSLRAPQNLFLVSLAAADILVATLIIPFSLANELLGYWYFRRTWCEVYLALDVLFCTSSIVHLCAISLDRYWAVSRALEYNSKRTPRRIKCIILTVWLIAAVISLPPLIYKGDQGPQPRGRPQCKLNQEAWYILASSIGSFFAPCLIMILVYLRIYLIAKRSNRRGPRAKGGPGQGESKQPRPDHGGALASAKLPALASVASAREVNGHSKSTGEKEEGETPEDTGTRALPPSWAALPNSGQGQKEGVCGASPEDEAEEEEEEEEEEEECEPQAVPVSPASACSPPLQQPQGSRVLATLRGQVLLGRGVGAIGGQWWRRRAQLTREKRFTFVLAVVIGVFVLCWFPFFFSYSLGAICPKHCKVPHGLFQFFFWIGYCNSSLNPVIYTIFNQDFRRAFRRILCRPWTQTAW
The experiment can be described thus: R-SAT broad profiling. As to conditions: read-out: pEC50 or pIC50 (converted). Here is the method: as §1, §2

For another experiment, the target named is T5, alpha 2C (Homo sapiens, UniProt P18825).
T5 construct: expressed in transfected cells; host or cells: NIH3T3
T5 sequence (P18825 1-462): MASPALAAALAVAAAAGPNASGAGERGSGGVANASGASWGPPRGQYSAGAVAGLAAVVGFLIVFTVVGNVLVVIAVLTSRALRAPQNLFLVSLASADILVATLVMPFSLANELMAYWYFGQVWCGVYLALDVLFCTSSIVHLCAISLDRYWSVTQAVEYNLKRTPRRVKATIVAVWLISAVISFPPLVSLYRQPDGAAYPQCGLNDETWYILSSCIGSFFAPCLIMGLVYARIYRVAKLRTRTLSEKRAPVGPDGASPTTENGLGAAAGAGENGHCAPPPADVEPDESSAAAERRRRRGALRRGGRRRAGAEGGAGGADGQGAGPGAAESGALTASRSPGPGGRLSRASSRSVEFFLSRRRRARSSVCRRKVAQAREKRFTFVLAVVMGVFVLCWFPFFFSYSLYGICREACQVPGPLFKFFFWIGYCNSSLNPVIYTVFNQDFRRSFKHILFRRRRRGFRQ
The experiment can be described thus: R-SAT broad profiling. The settings on record: read-out: pEC50 or pIC50 (converted). On the procedure:
as §1, §2

The next experiment addresses T6, m3 (Homo sapiens, UniProt P20309).
T6 construct: expressed in transfected cells; host or cells: NIH3T3
The experiment can be described thus: R-SAT broad profiling. The settings on record: read-out: pEC50 or pIC50 (converted). On the procedure:
as §1, §2

Another experiment has as its target T7, oprk 1 (Homo sapiens, UniProt P41145).
T7 construct: expressed in transfected cells; host or cells: NIH3T3
The experiment can be described thus: R-SAT broad profiling. The settings on record: read-out: pEC50 or pIC50 (converted). On the procedure:
as §1, §2

Where two headings read alike, the source gives them in different places. A value given as a limit tells only on which side of the number the result lay.

T1 sequence (P28223 whole entry): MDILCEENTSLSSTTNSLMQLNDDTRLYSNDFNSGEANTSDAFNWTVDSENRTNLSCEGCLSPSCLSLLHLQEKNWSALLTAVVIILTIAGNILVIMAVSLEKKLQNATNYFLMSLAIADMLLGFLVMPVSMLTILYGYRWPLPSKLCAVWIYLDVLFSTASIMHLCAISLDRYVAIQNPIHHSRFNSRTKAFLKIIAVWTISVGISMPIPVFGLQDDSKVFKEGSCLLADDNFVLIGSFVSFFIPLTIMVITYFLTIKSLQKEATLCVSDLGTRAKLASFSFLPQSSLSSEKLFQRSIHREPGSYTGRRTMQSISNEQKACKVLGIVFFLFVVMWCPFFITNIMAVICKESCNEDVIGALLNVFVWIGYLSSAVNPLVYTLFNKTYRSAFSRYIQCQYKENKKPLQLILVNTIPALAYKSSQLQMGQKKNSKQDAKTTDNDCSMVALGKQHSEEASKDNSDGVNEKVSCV
T7 sequence (P41145 whole entry): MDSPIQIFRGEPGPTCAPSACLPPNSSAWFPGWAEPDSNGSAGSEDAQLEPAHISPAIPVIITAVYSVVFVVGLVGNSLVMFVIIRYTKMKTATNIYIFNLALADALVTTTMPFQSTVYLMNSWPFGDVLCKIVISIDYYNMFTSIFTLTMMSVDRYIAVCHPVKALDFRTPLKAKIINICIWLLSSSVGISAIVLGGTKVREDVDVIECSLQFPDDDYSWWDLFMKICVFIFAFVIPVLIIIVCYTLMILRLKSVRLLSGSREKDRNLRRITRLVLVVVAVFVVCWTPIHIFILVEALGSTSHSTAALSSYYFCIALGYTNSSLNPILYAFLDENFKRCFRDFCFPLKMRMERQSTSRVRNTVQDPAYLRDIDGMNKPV
T6 sequence (P20309 whole entry): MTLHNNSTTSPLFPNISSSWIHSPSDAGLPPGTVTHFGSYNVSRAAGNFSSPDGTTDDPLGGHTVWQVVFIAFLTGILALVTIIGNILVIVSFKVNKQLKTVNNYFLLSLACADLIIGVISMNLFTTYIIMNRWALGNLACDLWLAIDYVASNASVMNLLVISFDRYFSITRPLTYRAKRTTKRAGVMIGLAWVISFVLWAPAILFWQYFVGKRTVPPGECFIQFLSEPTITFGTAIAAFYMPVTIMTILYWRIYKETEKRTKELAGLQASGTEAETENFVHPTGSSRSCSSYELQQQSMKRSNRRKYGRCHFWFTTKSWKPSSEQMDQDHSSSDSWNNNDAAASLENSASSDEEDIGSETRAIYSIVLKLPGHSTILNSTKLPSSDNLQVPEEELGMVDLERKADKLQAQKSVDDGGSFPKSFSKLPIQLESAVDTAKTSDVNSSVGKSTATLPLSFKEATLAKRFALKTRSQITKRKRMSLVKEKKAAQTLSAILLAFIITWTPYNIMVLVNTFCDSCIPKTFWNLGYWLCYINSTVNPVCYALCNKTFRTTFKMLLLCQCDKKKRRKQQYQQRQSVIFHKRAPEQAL

Take `CC(C)COc1ccc(CN2C(=O)OC3(CCN(C)CC3)C2Cc2ccc(F)cc2)cc1.Cl` (racemic) [Example 69NLS75, 4-(4-Fluorobenzyl)-3-(4-isobutoxybenzyl)-8-methyl-1-oxa-3,8-diazaspiro[4.5]decan-2-one, hydrochloride]: the EC50 at 5-HT2A receptor (read-out: pEC50 or pIC50 (converted)), on D1 (agonist), at alpha 1B (agonist), on alpha 2B (agonist), on alpha 2C (agonist) and at m3 (agonist) was more than 3.16 µM throughout. In addition, at oprk 1 (agonist), the EC50 was more than 3.16 µM. Also, the 5HT2A % inhibition at 5-HT2A receptor (compared to ritanserin) was 94%. The same compound gave an efficacy in brackets on 5-HT2A receptor (inverse) of 94%. Besides, the IC50 at D1 (antagonist), at alpha 1B (antagonist), on alpha 2B (antagonist), at alpha 2C (antagonist), at m3 (inverse) and on oprk 1 (antagonist) was more than 3.16 µM throughout.

Regarding `COc1ccc(CC(=O)N(Cc2ccc(C)cc2)C2CCN(C)CC2)cc1` [Example 50ELH27, 2-(4-Methoxyphenyl)-N-(4-methylbenzyl)-N-(1-methylpiperidin-4-yl)acetamide], at 5-HT2A receptor (120 h, read-out: Percent Efficacy, compared to ritanserin), the Emax stood at 108%. In addition, the IC50 at 5-HT2A receptor (Table 3, read-out: pIC50 (converted)) was 0.002 µM; on 5-HT2A receptor (inverse agonist, read-out: pEC50/pIC50 (converted)), 0.00158 µM. The EC50 at 5-HT2A receptor (read-out: pEC50/pIC50 (converted)) was more than 3.16 µM.
